# Tested on: New Zealand rabbits with normal intraocular pressure
# Experiment: Reduction of intraocular pressure by repeated eye-drop administration for 14 days, experiment operation 1
# Format: in vivo
# Settings: for Change of intraocular pressure: negative control minus group
# Text: Experimental example 4. Experiment on reduction of intraocular pressure and ocular toxicity of New Zealand rabbits with normal intraocular pressure by repeated eye-drop administration for 14 days
# The intraocular pressure reduction action and the potential ocular toxicity of compound 63 were explored by 14 days of repeated eye-drop administration in rabbits with normal intraocular pressure.
# Male New Zealand rabbits, aged 97-127 days, weighted 2.6-3.5 kg, purchased from PizhouDongfang Breeding Co. Ltd.
# The male New Zealand rabbits were randomly divided into 7 groups, with 6 rabbits per group. Animals were randomly divided according to body weight Animals in 1-7 groups were eye-dropped with solvent/control sample/test sample in both eyes, the volume of the administration was all 50 μL/eye, once per day for 14 consecutive days, and the day of the administration was recorded as Day 1. On Day 1, intraocular pressure of the animals was measured before the administration and in 1, 2, 4, 6, 8 and 10 hours after the administration, respectively; on Days 2-14, intraocular pressure of the animals was measured in 1 hour after daily administration for the group administered with K-115, and intraocular pressure of the animal was measured in 4 hours after daily administration for the other groups.
# [1] = 2.0 mg/mL once per day, Day 7, 4 hours after daily administration
# [2] = 4.0 mg/mL once per day, Day 2, 4 hours after daily administration
# [3] = 4.0 mg/mL once per day, Day 3, 4 hours after daily administration
# [4] = 4.0 mg/mL once per day, Day 4, 4 hours after daily administration
# [5] = 4.0 mg/mL once per day, Day 5, 4 hours after daily administration
# [6] = 4.0 mg/mL once per day, Day 6, 4 hours after daily administration
# [7] = 4.0 mg/mL once per day, Day 7, 4 hours after daily administration
# [8] = 8.0 mg/mL once per day, Day 2, 4 hours after daily administration
# [9] = 8.0 mg/mL once per day, Day 3, 4 hours after daily administration
# [10] = 8.0 mg/mL once per day, Day 4, 4 hours after daily administration
# [11] = 8.0 mg/mL once per day, Day 5, 4 hours after daily administration
# [12] = 8.0 mg/mL once per day, Day 6, 4 hours after daily administration
# [13] = 8.0 mg/mL once per day, Day 7, 4 hours after daily administration
smiles,measurement,setting,value
Cc1ccc(C(=O)OCn2cc(C)c3c(S(=O)(=O)N4CC[C@H](N)C4)cccc3c2=O)c(C)c1 [Compound 63],Mean intraocular pressure of both eyes,[1],5.78 mmHg
same,Change of intraocular pressure,[1],4.28 mmHg
same,Change of intraocular pressure,"2.0 mg/mL once per day, Day 8, 4 hours after daily administration",4.53 mmHg
same,Change of intraocular pressure,"2.0 mg/mL once per day, Day 9, 4 hours after daily administration",3.72 mmHg
same,Change of intraocular pressure,"2.0 mg/mL once per day, Day 10, 4 hours after daily administration",3.81 mmHg
same,Change of intraocular pressure,"2.0 mg/mL once per day, Day 11, 4 hours after daily administration",3.66 mmHg
same,Change of intraocular pressure,"2.0 mg/mL once per day, Day 12, 4 hours after daily administration",3.5 mmHg
same,Change of intraocular pressure,"2.0 mg/mL once per day, Day 13, 4 hours after daily administration",4.28 mmHg
same,Change of intraocular pressure,"2.0 mg/mL once per day, Day 14, 4 hours after daily administration",3.91 mmHg
same,Change of intraocular pressure,"2.0 mg/mL, Day 1, 1 hour after administration",1.75 mmHg
same,Change of intraocular pressure,"2.0 mg/mL, Day 1, 2 hours after administration",3.5 mmHg
same,Change of intraocular pressure,"2.0 mg/mL, Day 1, 4 hours after administration",3.84 mmHg
same,Change of intraocular pressure,"2.0 mg/mL, Day 1, 6 hours after administration",4.69 mmHg
same,Change of intraocular pressure,"2.0 mg/mL, Day 1, 8 hours after administration",4.53 mmHg
same,Change of intraocular pressure,"2.0 mg/mL, Day 1, 10 hours after administration",4.75 mmHg
same,Change of intraocular pressure,"2.0 mg/mL, Day 1, before administration",0.22 mmHg
same,Mean intraocular pressure of both eyes,"4 mg/mL both eyes, Day 1, 1 hour after administration",10.44 mmHg
same,Mean intraocular pressure of both eyes,"4 mg/mL both eyes, Day 1, 2 hours after administration",7.81 mmHg
same,Mean intraocular pressure of both eyes,"4 mg/mL both eyes, Day 1, 4 hours after administration",6.47 mmHg
same,Mean intraocular pressure of both eyes,"4 mg/mL both eyes, Day 1, 6 hours after administration",6.22 mmHg
same,Mean intraocular pressure of both eyes,"4 mg/mL both eyes, Day 1, 8 hours after administration",7.33 mmHg
same,Mean intraocular pressure of both eyes,"4 mg/mL both eyes, Day 1, 10 hours after administration",8.64 mmHg
same,Mean intraocular pressure of both eyes,"4 mg/mL both eyes, Day 1, before administration",9.67 mmHg
same,Mean intraocular pressure of both eyes,[2],6.53 mmHg
same,Change of intraocular pressure,[2],4.55 mmHg
same,Mean intraocular pressure of both eyes,[3],5.58 mmHg
same,Change of intraocular pressure,[3],4.81 mmHg
same,Mean intraocular pressure of both eyes,[4],5.53 mmHg
same,Change of intraocular pressure,[4],5.08 mmHg
same,Mean intraocular pressure of both eyes,[5],6.61 mmHg
same,Change of intraocular pressure,[5],4.36 mmHg
same,Mean intraocular pressure of both eyes,[6],5.47 mmHg
same,Change of intraocular pressure,[6],3.84 mmHg
same,Mean intraocular pressure of both eyes,[7],5.56 mmHg
same,Change of intraocular pressure,[7],4.5 mmHg
same,Change of intraocular pressure,"4.0 mg/mL once per day, Day 8, 4 hours after daily administration",4.53 mmHg
same,Change of intraocular pressure,"4.0 mg/mL once per day, Day 9, 4 hours after daily administration",3.97 mmHg
same,Change of intraocular pressure,"4.0 mg/mL once per day, Day 10, 4 hours after daily administration",4.67 mmHg
same,Change of intraocular pressure,"4.0 mg/mL once per day, Day 11, 4 hours after daily administration",3.86 mmHg
same,Change of intraocular pressure,"4.0 mg/mL once per day, Day 12, 4 hours after daily administration",3.64 mmHg
same,Change of intraocular pressure,"4.0 mg/mL once per day, Day 13, 4 hours after daily administration",4.36 mmHg
same,Change of intraocular pressure,"4.0 mg/mL once per day, Day 14, 4 hours after daily administration",4.64 mmHg
same,Change of intraocular pressure,"4 mg/mL, Day 1, 1 hour after administration",−0.13 mmHg
same,Change of intraocular pressure,"4 mg/mL, Day 1, 2 hours after administration",3.16 mmHg
same,Change of intraocular pressure,"4 mg/mL, Day 1, 4 hours after administration",4.84 mmHg
same,Change of intraocular pressure,"4 mg/mL, Day 1, 6 hours after administration",5.72 mmHg
same,Change of intraocular pressure,"4 mg/mL, Day 1, 8 hours after administration",5.64 mmHg
same,Change of intraocular pressure,"4 mg/mL, Day 1, 10 hours after administration",5.78 mmHg
same,Change of intraocular pressure,"4 mg/mL, Day 1, before administration",0.22 mmHg
same,Mean intraocular pressure of both eyes,"8.0 mg/mL both eyes, Day 1, 1 hour after administration",7.69 mmHg
same,Mean intraocular pressure of both eyes,"8.0 mg/mL both eyes, Day 1, 2 hours after administration",6.39 mmHg
same,Mean intraocular pressure of both eyes,"8.0 mg/mL both eyes, Day 1, 4 hours after administration",7.06 mmHg
same,Mean intraocular pressure of both eyes,"8.0 mg/mL both eyes, Day 1, 6 hours after administration",7.11 mmHg
same,Mean intraocular pressure of both eyes,"8.0 mg/mL both eyes, Day 1, 8 hours after administration",7.22 mmHg
same,Mean intraocular pressure of both eyes,"8.0 mg/mL both eyes, Day 1, 10 hours after administration",7.97 mmHg
same,Mean intraocular pressure of both eyes,"8.0 mg/mL both eyes, Day 1, before administration",10.17 mmHg
same,Mean intraocular pressure of both eyes,[8],6.33 mmHg
same,Change of intraocular pressure,[8],4.75 mmHg
same,Mean intraocular pressure of both eyes,[9],5.78 mmHg
same,Change of intraocular pressure,[9],4.61 mmHg
same,Mean intraocular pressure of both eyes,[10],5.97 mmHg
same,Change of intraocular pressure,[10],4.64 mmHg
same,Mean intraocular pressure of both eyes,[11],6.42 mmHg
same,Change of intraocular pressure,[11],4.55 mmHg
same,Mean intraocular pressure of both eyes,[12],5.56 mmHg
same,Change of intraocular pressure,[12],3.75 mmHg
same,Mean intraocular pressure of both eyes,[13],5.28 mmHg
same,Change of intraocular pressure,[13],4.78 mmHg
same,Change of intraocular pressure,"8.0 mg/mL once per day, Day 8, 4 hours after daily administration",5.59 mmHg
same,Change of intraocular pressure,"8.0 mg/mL once per day, Day 9, 4 hours after daily administration",4.25 mmHg
same,Change of intraocular pressure,"8.0 mg/mL once per day, Day 10, 4 hours after daily administration",4.19 mmHg
same,Change of intraocular pressure,"8.0 mg/mL once per day, Day 11, 4 hours after daily administration",4.16 mmHg
same,Change of intraocular pressure,"8.0 mg/mL once per day, Day 12, 4 hours after daily administration",3.97 mmHg
same,Change of intraocular pressure,"8.0 mg/mL once per day, Day 13, 4 hours after daily administration",4.72 mmHg
same,Change of intraocular pressure,"8.0 mg/mL once per day, Day 14, 4 hours after daily administration",4.03 mmHg
same,Change of intraocular pressure,"8.0 mg/mL, Day 1, 1 hour after administration",2.62 mmHg
same,Change of intraocular pressure,"8.0 mg/mL, Day 1, 2 hours after administration",4.58 mmHg
same,Change of intraocular pressure,"8.0 mg/mL, Day 1, 4 hours after administration",4.25 mmHg
same,Change of intraocular pressure,"8.0 mg/mL, Day 1, 6 hours after administration",4.83 mmHg
same,Change of intraocular pressure,"8.0 mg/mL, Day 1, 8 hours after administration",5.75 mmHg
same,Change of intraocular pressure,"8.0 mg/mL, Day 1, 10 hours after administration",6.45 mmHg
same,Change of intraocular pressure,"8.0 mg/mL, Day 1, before administration",−0.28 mmHg
same,Efficacy of a single dose (highest hypotensive effect and action duration),"all test doses (0.5-8.0 mg/mL), compared with K-115",superior efficacy
same,Hypotensive effect after 14 days of continuous administration,dose of 0.5 mg/mL,maintain a significant hypotensive effect
